Test: xn = mol fraction of the nth substance listed

C1C[C@@H]2[C@H]3CC[C@H](C3)[C@@H]2C1 + CC(C)CC(C)(C)C
viscosity [mPa·s], 100 kPa
Conditions | x1 = 0.1 | x1 = 0.2002 | x1 = 0.3008 | x1 = 0.4003 | x1 = 0.5008 | x1 = 0.5997 | x1 = 0.6982 | x1 = 0.8002 | x1 = 0.9012
293.15 K | 0.593 | 0.682 | 0.795 | 0.929 | 1.102 | 1.316 | 1.582 | 1.959 | 2.405
298.15 K | 0.563 | 0.643 | 0.745 | 0.868 | 1.026 | 1.219 | 1.457 | 1.799 | 2.194
303.15 K | 0.532 | 0.608 | 0.701 | 0.813 | 0.958 | 1.132 | 1.347 | 1.657 | 2.008
308.15 K | 0.506 | 0.574 | 0.661 | 0.764 | 0.896 | 1.056 | 1.251 | 1.534 | 1.844
313.15 K | 0.483 | 0.546 | 0.626 | 0.719 | 0.842 | 0.987 | 1.164 | 1.42 | 1.701

C1C[C@@H]2[C@H]3CC[C@H](C3)[C@@H]2C1 + CCCCCO
viscosity [mPa·s], 101 kPa
Conditions | x2 = 0.1465 | x2 = 0.2782 | x2 = 0.3987 | x2 = 0.5049 | x2 = 0.6067 | x2 = 0.6985 | x2 = 0.7827 | x2 = 0.8623 | x2 = 0.9326
293.15 K | 2.919 | 2.901 | 2.955 | 3.058 | 3.19 | 3.372 | 3.549 | 3.718 | 3.916
298.15 K | 2.621 | 2.595 | 2.622 | 2.7 | 2.807 | 2.953 | 3.095 | 3.27 | 3.411
303.15 K | 2.379 | 2.346 | 2.354 | 2.41 | 2.487 | 2.607 | 2.726 | 2.852 | 2.971
313.15 K | 1.972 | 1.92 | 1.914 | 1.922 | 1.957 | 2.033 | 2.107 | 2.18 | 2.253

Nc1cccc(Cl)c1 + COCCO
303.15 K, 101 kPa
Conditions | viscosity [mPa·s]
x1 = 0.0687 | 2.116
x1 = 0.1403 | 2.27
x1 = 0.238 | 2.434
x1 = 0.3592 | 2.586
x1 = 0.4287 | 2.72
x1 = 0.5233 | 2.844
x1 = 0.6416 | 2.949
x1 = 0.7401 | 3.05
x1 = 0.8794 | 3.143

CCC(=O)O + CCO
308.15 K, 101 kPa
Conditions | viscosity [mPa·s]
x1 = 0.0674 | 1.035
x1 = 0.1373 | 1.062
x1 = 0.2156 | 1.095
x1 = 0.2983 | 1.125
x1 = 0.3898 | 1.151
x1 = 0.4885 | 1.167
x1 = 0.5987 | 1.16
x1 = 0.7173 | 1.119
x1 = 0.7834 | 1.081
x1 = 0.8532 | 1.043
x1 = 0.9225 | 0.9581

CCC(=O)O + CCCO
308.15 K, 101 kPa
Conditions | viscosity [mPa·s]
x1 = 0.0416 | 1.42
x1 = 0.084 | 1.443
x1 = 0.1244 | 1.439
x1 = 0.1683 | 1.368
x1 = 0.2579 | 1.351
x1 = 0.3504 | 1.328
x1 = 0.4481 | 1.289
x1 = 0.5489 | 1.242
x1 = 0.6538 | 1.178
x1 = 0.7644 | 1.096
x1 = 0.8223 | 1.055
x1 = 0.8798 | 1.006
x1 = 0.9384 | 0.9669

CCCOC(=O)CC + CCCCCC
298.15 K, 101.33 kPa
Conditions | viscosity [mPa·s]
x1 = 0.0581 | 0.299
x1 = 0.1227 | 0.31
x1 = 0.2151 | 0.33
x1 = 0.3111 | 0.355
x1 = 0.3983 | 0.379
x1 = 0.4343 | 0.389
x1 = 0.4898 | 0.401
x1 = 0.5466 | 0.421
x1 = 0.586 | 0.433
x1 = 0.68 | 0.465
x1 = 0.8894 | 0.557
x1 = 0.9133 | 0.573

CC(=O)CCC(=O)O + CC[N+](CC)(CC)CC.[Br-]
101 kPa, x1 = 0.75
Conditions | viscosity [mPa·s]
293.15 K | 149
303.15 K | 76.98
313.15 K | 42.42
323.15 K | 28.81

CCC(=O)O + O=[N+]([O-])c1ccccc1
viscosity [mPa·s], 101 kPa
Conditions | x1 = 0.1311 | x1 = 0.2535 | x1 = 0.3679 | x1 = 0.4752 | x1 = 0.5759 | x1 = 0.6708 | x1 = 0.7601 | x1 = 0.8445 | x1 = 0.9244
298.15 K | 1.763 | 1.711 | 1.663 | 1.612 | 1.551 | 1.478 | 1.392 | 1.291 | 1.175
308.15 K | 1.469 | 1.452 | 1.428 | 1.394 | 1.346 | 1.285 | 1.21 | 1.121 | 1.019
318.15 K | 1.35 | 1.42 | 1.421 | 1.376 | 1.301 | 1.207 | 1.106 | 1.002 | 0.9012

O=[N+]([O-])[O-].[Li+] + O
100 kPa
Conditions | viscosity [mPa·s]
298.11 K, x1 = 0.0088 | 0.9305
298.18 K, x1 = 0.00475 | 0.9105
298.35 K, x1 = 0.01898 | 0.9846
298.45 K, x1 = 0.02699 | 1.04
306.75 K, x1 = 0.02699 | 0.8753
307.65 K, x1 = 0.01898 | 0.8088
307.85 K, x1 = 0.00475 | 0.746
308.95 K, x1 = 0.0088 | 0.7411

Cc1ccccc1Cl + CCCCCC
viscosity [mPa·s], 100 kPa
Conditions | 298.15 K | 308.15 K | 318.15 K
x1 = 0.0629 | 0.341 | 0.315 | 0.292
x1 = 0.1435 | 0.369 | 0.338 | 0.313
x1 = 0.2364 | 0.398 | 0.37 | 0.343
x1 = 0.3403 | 0.436 | 0.401 | 0.37
x1 = 0.4252 | 0.477 | 0.437 | 0.401
x1 = 0.4608 | 0.499 | 0.451 | 0.414
x1 = 0.5249 | 0.54 | 0.485 | 0.445
x1 = 0.5742 | 0.574 | 0.515 | 0.471
x1 = 0.6237 | 0.611 | 0.546 | 0.496
x1 = 0.6816 | 0.657 | 0.585 | 0.531
x1 = 0.7398 | 0.705 | 0.624 | 0.565
x1 = 0.8335 | 0.785 | 0.7 | 0.63
x1 = 0.9276 | 0.889 | 0.789 | 0.706

ClCCCCCl + CC(C)CO
viscosity [mPa·s], 101 kPa
Conditions | x1 = 0.0994 | x1 = 0.1958 | x1 = 0.2938 | x1 = 0.4026 | x1 = 0.5 | x1 = 0.6041 | x1 = 0.7031 | x1 = 0.801 | x1 = 0.8984
298.15 K | 2.524 | 2.027 | 1.715 | 1.501 | 1.371 | 1.285 | 1.236 | 1.208 | 1.215
313.15 K | 1.648 | 1.381 | 1.207 | 1.097 | 1.02 | 0.977 | 0.9567 | 0.9491 | 0.9661

— the CheMixHub viscosity set
